Measurements reported in US8415469B2, “Compounds and methods for kinase modulation, and indications therefor” (Plexxikon Inc., priority 2005, dated 2013).

How the values were obtained:
Type in all cases: biochemical
B-Raf = target: T1, B-Raf (Homo sapiens, UniProt P15056); assay: AlphaScreen kinase assay, B-Raf; conditions: read-out: IC50, activity toward kinase B-Raf
T1 construct: purchased Upstate Biotechnology

B-Raf V600E = target: T2, B-Raf V600E (Homo sapiens, UniProt P15056, V600E); assay: AlphaScreen kinase assay, B-Raf V600E; conditions: read-out: IC50, activity toward kinase B-Raf V600E
T2 construct: P4254. pFastBacBD-CDC37 BRAF D437-K722-X, V600E; His6 with pFastBac HT leader (TEV site) (N); made in house; host or cells: Sf9 (baculovirus; chaperone CDC37 co-expressed)
T2 sequence (P15056 with tags, fused parts or gaps V600E): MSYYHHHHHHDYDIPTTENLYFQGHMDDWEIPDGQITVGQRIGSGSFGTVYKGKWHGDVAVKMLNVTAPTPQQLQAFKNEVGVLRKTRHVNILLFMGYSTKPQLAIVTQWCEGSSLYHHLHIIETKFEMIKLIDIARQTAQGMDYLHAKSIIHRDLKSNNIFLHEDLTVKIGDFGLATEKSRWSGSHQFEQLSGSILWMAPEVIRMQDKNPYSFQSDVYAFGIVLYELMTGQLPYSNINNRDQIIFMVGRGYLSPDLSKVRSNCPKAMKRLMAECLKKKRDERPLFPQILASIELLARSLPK

c-Raf-1 = target: T3, c-Raf-1 (Homo sapiens, UniProt P04049); assay: AlphaScreen kinase assay, c-Raf-1; conditions: read-out: IC50, activity toward kinase c-Raf-1
T3 construct: purchased Upstate Biotechnology
T3 sequence (P04049 whole entry): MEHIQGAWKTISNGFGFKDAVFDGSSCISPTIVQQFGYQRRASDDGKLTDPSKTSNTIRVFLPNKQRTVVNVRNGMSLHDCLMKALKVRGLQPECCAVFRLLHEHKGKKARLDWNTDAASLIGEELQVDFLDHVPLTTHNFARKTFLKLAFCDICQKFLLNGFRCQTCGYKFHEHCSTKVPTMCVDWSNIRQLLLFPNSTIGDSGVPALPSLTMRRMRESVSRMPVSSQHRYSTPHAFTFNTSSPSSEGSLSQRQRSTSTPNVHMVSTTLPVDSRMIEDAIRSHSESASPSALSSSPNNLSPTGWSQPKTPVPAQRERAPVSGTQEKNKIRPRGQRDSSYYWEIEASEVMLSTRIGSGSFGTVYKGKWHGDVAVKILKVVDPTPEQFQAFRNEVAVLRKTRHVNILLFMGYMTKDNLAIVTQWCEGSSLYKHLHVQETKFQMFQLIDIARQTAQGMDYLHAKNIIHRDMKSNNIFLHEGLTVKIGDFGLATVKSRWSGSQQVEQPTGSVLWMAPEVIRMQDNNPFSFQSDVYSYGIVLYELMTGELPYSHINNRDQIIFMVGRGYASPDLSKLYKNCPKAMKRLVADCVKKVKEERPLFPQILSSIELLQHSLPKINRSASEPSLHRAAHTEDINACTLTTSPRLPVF

Pyk2 = target: T4, Pyk2 (Homo sapiens, UniProt Q14289); assay: AlphaScreen kinase assay, Pyk2; conditions: read-out: IC50, activity toward kinase Pyk2
T4 construct: purchased Upstate Biotechnology
T4 sequence (Q14289 whole entry): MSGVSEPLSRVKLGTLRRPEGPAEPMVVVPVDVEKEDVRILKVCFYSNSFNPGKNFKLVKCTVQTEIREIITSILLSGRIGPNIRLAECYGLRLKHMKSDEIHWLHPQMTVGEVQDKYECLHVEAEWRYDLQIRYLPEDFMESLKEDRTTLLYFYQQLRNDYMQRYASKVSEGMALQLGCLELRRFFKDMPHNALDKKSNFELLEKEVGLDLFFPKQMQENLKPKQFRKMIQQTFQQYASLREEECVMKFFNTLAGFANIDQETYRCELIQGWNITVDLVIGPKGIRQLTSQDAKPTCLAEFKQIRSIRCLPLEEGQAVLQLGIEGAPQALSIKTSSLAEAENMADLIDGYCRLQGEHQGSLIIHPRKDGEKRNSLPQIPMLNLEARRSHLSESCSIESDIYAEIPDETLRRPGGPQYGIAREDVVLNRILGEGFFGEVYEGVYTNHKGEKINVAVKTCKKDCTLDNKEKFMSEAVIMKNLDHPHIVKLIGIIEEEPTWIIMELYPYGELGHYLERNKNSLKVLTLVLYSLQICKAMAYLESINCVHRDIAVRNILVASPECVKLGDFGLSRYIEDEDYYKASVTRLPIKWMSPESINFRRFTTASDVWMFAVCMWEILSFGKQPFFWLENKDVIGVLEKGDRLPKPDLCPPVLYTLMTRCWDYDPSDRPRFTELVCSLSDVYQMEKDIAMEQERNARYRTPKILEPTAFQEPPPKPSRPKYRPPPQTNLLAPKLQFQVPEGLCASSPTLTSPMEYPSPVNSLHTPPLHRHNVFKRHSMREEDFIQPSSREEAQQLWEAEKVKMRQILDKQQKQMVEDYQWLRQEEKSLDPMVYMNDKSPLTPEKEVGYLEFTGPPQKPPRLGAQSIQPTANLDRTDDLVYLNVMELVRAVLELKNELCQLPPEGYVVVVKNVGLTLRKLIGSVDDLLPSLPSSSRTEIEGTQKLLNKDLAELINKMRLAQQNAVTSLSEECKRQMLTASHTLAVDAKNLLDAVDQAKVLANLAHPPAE

Ret = target: T5, Ret (Homo sapiens, UniProt P07949); assay: AlphaScreen kinase assay, Ret; conditions: read-out: IC50, activity toward kinase Ret
T5 construct: P1378.pET-SF BI-PTP RET H661-R1012 HIS; made in house
T5 sequence (P07949 with tags, fused parts or gaps): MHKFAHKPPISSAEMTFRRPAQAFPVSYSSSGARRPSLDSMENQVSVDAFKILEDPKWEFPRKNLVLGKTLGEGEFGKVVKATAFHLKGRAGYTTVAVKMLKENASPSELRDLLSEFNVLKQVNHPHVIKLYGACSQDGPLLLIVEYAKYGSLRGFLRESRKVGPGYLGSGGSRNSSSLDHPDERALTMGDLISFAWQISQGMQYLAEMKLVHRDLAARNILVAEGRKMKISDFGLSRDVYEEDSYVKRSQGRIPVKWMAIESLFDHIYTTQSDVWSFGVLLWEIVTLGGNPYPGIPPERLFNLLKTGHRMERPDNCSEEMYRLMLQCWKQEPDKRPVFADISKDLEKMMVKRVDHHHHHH

Fak = target: T6, Fak (Homo sapiens, UniProt Q05397); assay: AlphaScreen kinase assay, Fak; conditions: read-out: IC50, activity toward kinase Fak
T6 construct: P1358.pFastBacHtb FAK S411-Q686-X; His6 with pFastBacHTb leader (TEV site) (N); made in house; host or cells: Sf9 (baculovirus)
Source text: (§1) AlphaScreen assay was used to screen additional kinases. The assay is similarly dependent on the phosphorylation of a peptide substrate. In this assay, an antibody that recognizes phosphorylated substrate is bound to an acceptor bead. The peptide substrate is attached to biotin, which binds to a donor head that contains streptavidin. Thus phosphorylated substrate is bound by antibody and streptavidin, bringing the donor and acceptor heads into close proximity when kinase is not inhibited. The donor produces singlet oxygen which results in emission from the acceptor when they are in close proximity. Conversely, when kinase is inhibited, the donor and acceptor beads are not associated and the emission from the acceptor is reduced.
(§2) AlphaScreen assays were done using compounds dissolved in DMSO to a concentration of 20 mM. The compounds were diluted accordingly to the desired final concentrations in each sample well, using 1:3 serial dilution for a total of 8 concentration points. Plates were prepared such that each kinase reaction is 20 μl in 1× kinase buffer, 5% DMSO and 10 μM ATP. After incubation of the kinase reaction for 1 hour at room temperature, 5 μl of donor beads in stop buffer (50 mM EDTA in 1× kinase buffer) was added, the sample was mixed and incubated for 20 minutes at room temperature before adding 5 μl of acceptor beads in stop buffer. The samples were incubated for 60 minutes at room temperature and the signal per well was read on AlphaQuest reader.

FGFR1 = target: T7, FGFR1 (Homo sapiens, UniProt P11362, C488A/C584S); assay: AlphaScreen kinase assay, FGFR1; conditions: read-out: IC50, activity toward kinase FGFR
T7 construct: P1351.pET N6 BI-PTP FGFR A458-E765-X C488A, C584S; made in house; host or cells: E. coli (PTP1B co-expressed)

Flt1 = target: T8, Flt1 (Homo sapiens, UniProt P17948); assay: AlphaScreen kinase assay, Flt1; conditions: read-out: IC50, activity toward kinase Flt1
T8 construct: P1826.pETN6 BI-PTP FLT1 M799-D1165-X WT; His6 (N); made in house; host or cells: E. coli (PTP1B co-expressed)
T8 sequence (P17948 with tags, fused parts or gaps): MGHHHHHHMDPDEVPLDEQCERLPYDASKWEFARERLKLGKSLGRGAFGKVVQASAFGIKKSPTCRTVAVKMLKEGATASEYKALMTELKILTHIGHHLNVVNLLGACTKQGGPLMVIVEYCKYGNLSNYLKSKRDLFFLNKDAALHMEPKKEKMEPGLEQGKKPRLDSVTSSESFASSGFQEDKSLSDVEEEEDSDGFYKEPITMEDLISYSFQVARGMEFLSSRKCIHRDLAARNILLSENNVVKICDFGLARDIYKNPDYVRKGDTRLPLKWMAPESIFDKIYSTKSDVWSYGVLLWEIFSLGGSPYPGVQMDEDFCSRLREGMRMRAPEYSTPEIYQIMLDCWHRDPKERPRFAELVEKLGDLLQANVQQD

Fms = target: T9, Fms (Homo sapiens, UniProt P07333); assay: AlphaScreen kinase assay, Fms; conditions: read-out: IC50, activity toward kinase Fms
T9 construct: purchased Upstate Biotechnology
T9 sequence (P07333 20-972): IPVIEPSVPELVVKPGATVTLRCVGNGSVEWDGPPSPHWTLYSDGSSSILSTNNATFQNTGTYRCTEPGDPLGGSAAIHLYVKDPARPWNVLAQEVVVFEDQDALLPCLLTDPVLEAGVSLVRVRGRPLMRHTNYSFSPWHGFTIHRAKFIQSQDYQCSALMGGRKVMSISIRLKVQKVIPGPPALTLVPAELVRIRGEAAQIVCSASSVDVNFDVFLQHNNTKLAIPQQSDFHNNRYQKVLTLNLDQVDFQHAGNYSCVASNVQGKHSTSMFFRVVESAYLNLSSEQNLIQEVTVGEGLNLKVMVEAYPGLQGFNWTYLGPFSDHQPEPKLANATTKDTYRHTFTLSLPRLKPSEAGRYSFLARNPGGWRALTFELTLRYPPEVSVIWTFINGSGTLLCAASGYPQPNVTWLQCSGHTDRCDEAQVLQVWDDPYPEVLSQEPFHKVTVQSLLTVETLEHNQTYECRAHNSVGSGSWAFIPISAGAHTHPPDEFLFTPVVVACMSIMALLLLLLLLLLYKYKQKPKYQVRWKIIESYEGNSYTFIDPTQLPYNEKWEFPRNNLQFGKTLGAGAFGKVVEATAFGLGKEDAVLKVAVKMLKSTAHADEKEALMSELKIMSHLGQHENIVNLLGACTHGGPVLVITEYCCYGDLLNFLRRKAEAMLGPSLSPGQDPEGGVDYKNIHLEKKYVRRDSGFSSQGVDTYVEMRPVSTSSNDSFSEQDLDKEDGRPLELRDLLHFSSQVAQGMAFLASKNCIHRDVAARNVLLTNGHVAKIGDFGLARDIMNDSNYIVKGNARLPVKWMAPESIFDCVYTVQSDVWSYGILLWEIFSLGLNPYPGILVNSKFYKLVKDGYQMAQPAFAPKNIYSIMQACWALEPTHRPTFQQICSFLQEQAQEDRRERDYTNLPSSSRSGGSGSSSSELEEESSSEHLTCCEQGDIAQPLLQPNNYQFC

Jnk1 = target: T10, Jnk1 (Homo sapiens, UniProt P45983); assay: AlphaScreen kinase assay, Jnk1; conditions: read-out: IC50, activity toward kinase Jnk1
T10 construct: purchased Upstate Biotechnology
T10 sequence (P45983 whole entry): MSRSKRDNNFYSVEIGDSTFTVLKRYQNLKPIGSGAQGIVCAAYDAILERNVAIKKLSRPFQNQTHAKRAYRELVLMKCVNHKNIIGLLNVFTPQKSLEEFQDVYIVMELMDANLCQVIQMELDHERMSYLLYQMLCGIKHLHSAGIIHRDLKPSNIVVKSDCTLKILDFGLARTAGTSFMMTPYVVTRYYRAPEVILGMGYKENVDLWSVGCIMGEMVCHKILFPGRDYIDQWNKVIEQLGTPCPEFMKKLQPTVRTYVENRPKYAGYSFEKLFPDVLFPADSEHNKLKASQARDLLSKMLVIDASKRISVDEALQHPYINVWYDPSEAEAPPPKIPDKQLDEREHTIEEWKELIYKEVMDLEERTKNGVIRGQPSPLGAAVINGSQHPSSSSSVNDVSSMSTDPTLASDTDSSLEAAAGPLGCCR
Source text: as §1, §2

Jnk2 = target: T11, Jnk2 (Homo sapiens, UniProt P45984); assay: AlphaScreen kinase assay, Jnk2; conditions: read-out: IC50, activity toward kinase Jnk2
T11 construct: purchased Roche Protein Expression Group (Indianapolis, IN)
T11 sequence (P45984 whole entry): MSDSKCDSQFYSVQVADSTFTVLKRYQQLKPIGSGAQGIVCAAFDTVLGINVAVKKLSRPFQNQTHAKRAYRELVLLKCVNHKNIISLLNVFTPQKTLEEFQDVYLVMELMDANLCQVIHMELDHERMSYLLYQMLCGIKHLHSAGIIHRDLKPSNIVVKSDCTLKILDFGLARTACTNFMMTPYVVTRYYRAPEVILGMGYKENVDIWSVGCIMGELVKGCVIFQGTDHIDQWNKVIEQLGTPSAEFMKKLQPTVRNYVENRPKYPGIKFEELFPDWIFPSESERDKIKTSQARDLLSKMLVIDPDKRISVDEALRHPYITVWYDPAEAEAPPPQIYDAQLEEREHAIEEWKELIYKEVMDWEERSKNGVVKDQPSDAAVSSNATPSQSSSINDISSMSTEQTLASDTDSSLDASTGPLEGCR
Outline: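 Uses phospho-specific antibody on acceptor beads plus streptavidin donor beads capturing biotinylated peptide substrate; singlet oxygen from donor excites nearby acceptor. Inhibitors tested in 8-point, 1:3 titrations starting from 20 mM DMSO solutions.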

Jnk3 = target: T12, Jnk3 (Homo sapiens, UniProt P53779); assay: AlphaScreen kinase assay, Jnk3; conditions: read-out: IC50, activity toward kinase Jnk3
T12 construct: purchased Upstate Biotechnology

Kit = target: T13, Kit (Homo sapiens, UniProt P10721); assay: AlphaScreen kinase assay, Kit; conditions: read-out: IC50, activity toward kinase Kit
T13 construct: P1332.N6 BI PTP KIT M552-K948-X COD; His6 (N); made in house; host or cells: E. coli (PTP1B co-expressed)

Src = target: T14, Src (Homo sapiens, UniProt P12931); assay: AlphaScreen kinase assay, Src; conditions: read-out: IC50, activity toward kinase Src
T14 construct: P1144. pET-N6 BI-PTP SRC V86-L536-X; made in house
T14 sequence (P12931 with tags, fused parts or gaps): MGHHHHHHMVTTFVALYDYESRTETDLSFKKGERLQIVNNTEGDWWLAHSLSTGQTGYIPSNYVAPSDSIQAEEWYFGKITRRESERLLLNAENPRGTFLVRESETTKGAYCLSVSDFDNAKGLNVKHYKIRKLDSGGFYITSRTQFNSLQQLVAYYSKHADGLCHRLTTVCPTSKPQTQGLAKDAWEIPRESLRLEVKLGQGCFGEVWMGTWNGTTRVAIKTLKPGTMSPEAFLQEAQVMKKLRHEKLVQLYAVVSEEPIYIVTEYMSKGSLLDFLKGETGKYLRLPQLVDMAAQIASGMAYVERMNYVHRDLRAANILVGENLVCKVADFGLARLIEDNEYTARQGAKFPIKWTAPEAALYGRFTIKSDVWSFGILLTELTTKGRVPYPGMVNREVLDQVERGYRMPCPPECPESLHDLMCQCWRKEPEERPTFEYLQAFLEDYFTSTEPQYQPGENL

Btk = target: T15, Btk (Homo sapiens, UniProt Q06187); assay: Z'-Lyte FRET kinase assay (Invitrogen), Btk; conditions: read-out: IC50, activity toward kinase Btk
T15 construct: purchased Invitrogen (assay run by Invitrogen)

Kdr = target: T16, Kdr (Homo sapiens, UniProt P35968); assay: Z'-Lyte FRET kinase assay (Invitrogen), Kdr; conditions: read-out: IC50, activity toward kinase Kdr
T16 construct: purchased Invitrogen (assay run by Invitrogen)
Source text: For example, direct radiometric, indirect FRET or AlphaScreen assays may be used to assess the level of phosphorylation of a substrate in the presence of test compounds in order to determine the inhibitory affect of the compound on the kinase. […] For these assays, compounds of the invention were screened by Invitrogen using Z′-Lyte™ kinase assay.
Briefly, the Invitrogen kinase assay involves use of a specific peptide substrate optimized for each kinase, containing a fluorophore at each end that make up the FRET pair. The peptide sensitivity to proteolytic cleavage depends on phosphorylation of the peptide. Non-phosphorylated peptide is cleaved by a protease while peptide phosphorylated by the kinase is not cleaved. Cleavage of the peptide disrupts the FRET between the donor (coumarin) and acceptor (fluorescein) fluorophores, resulting in an increase in the ratio of donor emission to acceptor emission. The emission ratio of coumarin to fluorescein is used to assess the reaction progress. […] Thus, the assay involves a kinase reaction in the presence of varying concentrations of a given compound, a development reaction with site specific protease, and detection of the fluorescent emission ratio of coumarin and fluorscein. […] Reaction conditions for each kinase are determined to provide optimal reaction times, incubation temperature, kinase and ATP concentrations. Test samples are made up in 1× kinase buffer (50 mM HEPES pH 7.5, 50 mM MgCl2, 5 mM EGTA, 0.05% BRIJ-35) and compound at desired concentration prepared in DMSO such that the final DMSO is 1%. […] All kinase except for MAP2K1 were at 10 μM ATP in the kinase reaction, while MAP2K1 was at 100 μM. Samples are mixed and the kinase reaction is incubated 1 hour at room temperature, after which 5 μl of development solution is added and mixed. After incubation for another 1 hour at room temperature, 5 μl of stop reagent is added to each sample and mixed. The fluorescence signals are measured to determine the emission ratio.

Measured: IC50

T1 sequence (P15056 whole entry): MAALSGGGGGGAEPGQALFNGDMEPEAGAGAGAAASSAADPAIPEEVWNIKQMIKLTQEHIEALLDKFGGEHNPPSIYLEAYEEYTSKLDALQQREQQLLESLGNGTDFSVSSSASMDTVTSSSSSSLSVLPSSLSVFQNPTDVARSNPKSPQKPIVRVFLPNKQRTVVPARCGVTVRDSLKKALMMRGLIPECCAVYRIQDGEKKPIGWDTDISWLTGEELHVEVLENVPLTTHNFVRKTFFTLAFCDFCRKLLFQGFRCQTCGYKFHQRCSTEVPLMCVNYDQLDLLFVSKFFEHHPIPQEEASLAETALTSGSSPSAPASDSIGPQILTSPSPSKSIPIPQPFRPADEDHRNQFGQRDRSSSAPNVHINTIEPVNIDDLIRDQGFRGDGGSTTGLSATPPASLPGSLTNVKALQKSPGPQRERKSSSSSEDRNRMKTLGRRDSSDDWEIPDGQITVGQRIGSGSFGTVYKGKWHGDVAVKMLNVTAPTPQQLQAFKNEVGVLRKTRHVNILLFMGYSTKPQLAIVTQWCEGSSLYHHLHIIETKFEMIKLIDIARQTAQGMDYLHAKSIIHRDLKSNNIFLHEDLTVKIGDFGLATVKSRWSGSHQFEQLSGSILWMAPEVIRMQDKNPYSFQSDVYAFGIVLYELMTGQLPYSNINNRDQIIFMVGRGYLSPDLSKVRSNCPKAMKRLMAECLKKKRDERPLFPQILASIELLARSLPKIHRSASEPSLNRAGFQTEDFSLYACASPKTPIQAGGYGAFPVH

CCCS(=O)(=O)Nc1ccc(F)c(C(O)c2c[nH]c3ncc(-c4ccccc4)cc23)c1F (stereo not drawn) [Compound P-0946]
≤ 10 µM: B-Raf | B-Raf V600E | c-Raf-1 | Pyk2

CC(=O)c1cccc(-c2ccnc3[nH]ccc23)c1 [Compound P-0116]
≤ 10 µM: Pyk2 | Ret

Brc1cnc2[nH]cc(Cc3ccccc3OCc3ccccc3)c2c1 [Compound P-1379]
≤ 10 µM: Pyk2

CCCS(=O)(=O)Nc1ccc(F)c(C(O)c2c[nH]c3ncc(Nc4ccccc4)cc23)c1F (stereo not drawn) [Compound P-0928]
≤ 10 µM: B-Raf | B-Raf V600E | c-Raf-1 | Pyk2

CCCNC(=O)Nc1ccc(F)c(C(=O)c2c[nH]c3ncc(-c4cccnc4)cc23)c1F [Compound P-0774, 1-[2,4-difluoro-3-(5-pyridin-3-yl-1H-pyrrolo[2,3-b]pyridine-3-carbonyl)-phenyl]-3-propyl-urea]
not listed: Pyk2 | Ret | Btk | Kdr
≤ 10 µM: all other assays above

c1ccc(N2CCOCC2)c(Nc2ccc3cc[nH]c3n2)c1 [Compound P-1377, (2-Morpholin-4-yl-phenyl)-(1H-pyrrolo[2,3-b]pyridin-6-yl)-amine]
≤ 10 µM: FGFR1 | Pyk2

CCCS(=O)(=O)Nc1ccc(F)c(C(OC)c2c[nH]c3ncc(-c4ccccc4)cc23)c1F (stereo not drawn) [Compound P-0957]
≤ 10 µM: B-Raf V600E | c-Raf-1 | Pyk2

Cc1cc(Nc2ccc3cc[nH]c3n2)no1 [Compound P-1376, (5-Methyl-isoxazol-3-yl)-(1H-pyrrolo[2,3-b]pyridin-6-yl)-amine]
≤ 10 µM: Fms | Kit | Pyk2

COC(c1c(F)ccc(NS(=O)(=O)C(C)C)c1F)c1c[nH]c2ncc(-c3cccnc3)cc12 (stereo not drawn) [Compound P-0947, Propane-2-sulfonic acid {2,4-difluoro-3-[methoxy-(5-pyridin-3-yl-1H-pyrrolo[2,3-b]pyridin-3-yl)-methyl]-phenyl}-amide]
≤ 10 µM: B-Raf | B-Raf V600E | c-Raf-1 | FGFR1 | Pyk2

CCCCNC(=O)Nc1cccc(C(=O)c2c[nH]c3ncc(-c4cccnc4)cc23)c1 [Compound P-1445, 1-Butyl-3-[3-(5-pyridin-3-yl-1H-pyrrolo[2,3-b]pyridine-3-carbonyl)-phenyl]-urea]
not listed: c-Raf-1 | Pyk2 | Ret | Btk | Kdr
≤ 10 µM: all other assays above

OC(c1ccccc1OCc1ccccc1)c1c[nH]c2ncc(Br)cc12 (stereo not drawn) [Compound P-1380]
≤ 10 µM: FGFR1 | Fms | Kit | Pyk2

CCCS(=O)(=O)Nc1ccc(F)c(C(=O)c2c[nH]c3ncc(-c4ccc(C(F)(F)F)cc4)cc23)c1F [Compound P-0912, Propane-1-sulfonic acid {2,4-difluoro-3-[5-(4-trifluoromethyl-phenyl)-1H-pyrrolo[2,3-b]pyridine-3-carbonyl]-phenyl}-amide]
≤ 10 µM: B-Raf | B-Raf V600E | c-Raf-1 | FGFR1 | Pyk2

CCCS(=O)(=O)Oc1ccc(F)c(C(=O)c2c[nH]c3ncc(Br)cc23)c1F [Compound P-0919, propane-1-sulfonic acid 3-(5-bromo-1H-pyrrolo[2,3-b]pyridine-3-carbonyl)-2,4-difluoro-phenyl ester]
≤ 10 µM: B-Raf | B-Raf V600E | c-Raf-1 | FGFR1 | Fms | Kit | Pyk2

CCCS(=O)(=O)Nc1ccc(F)c(Cc2c[nH]c3ncc(N4CCOCC4)cc23)c1F [Compound P-0964, Propane-1-sulfonic acid [2,4-difluoro-3-(5-morpholin-4-yl-1H-pyrrolo[2,3-b]pyridin-3-ylmethyl)-phenyl]-amide]
≤ 10 µM: B-Raf V600E | c-Raf-1 | FGFR1 | Kit | Pyk2

CCCCNC(=O)n1ccc2c(C(=O)c3c[nH]c4ncc(-c5cccnc5)cc34)cccc21 [Compound P-1486, 4-(5-Pyridin-3-yl-1H-pyrrolo[2,3-b]pyridine-3-carbonyl)-indole-1-carboxylic acid butylamide]
not listed: c-Raf-1 | Pyk2 | Ret | Kdr
≤ 10 µM: all other assays above

CCCC(=O)Nc1ccc(F)c(C(OC)c2c[nH]c3ncc(OC)cc23)c1F (stereo not drawn) [Compound P-1368]
≤ 10 µM: B-Raf V600E | Fms | Kit | Pyk2

O=C(c1ccc(O)cc1Cl)c1c[nH]c2ncc(Br)cc12 [Compound P-0137]
≤ 10 µM: B-Raf V600E | c-Raf-1 | FGFR1 | Kdr | Pyk2 | Ret

COC(c1c(F)ccc(NS(=O)(=O)C(C)C)c1F)c1c[nH]c2ncc(Br)cc12 (stereo not drawn) [Compound P-0356, Propane-2-sulfonic acid {3-[(5-bromo-1H-pyrrolo[2,3-b]pyridin-3-yl)-methoxy-methyl]-2,4-difluoro-phenyl}-amide]
≤ 10 µM: B-Raf | B-Raf V600E | c-Raf-1 | Pyk2

CC(=O)Nc1ccc(F)c(C(O)c2c[nH]c3ncc(-c4cccnc4)cc23)c1F (stereo not drawn) [Compound P-1069]
≤ 10 µM: B-Raf V600E | Pyk2

NC(=O)c1cccc(-c2cnc3[nH]cc(Cc4ccccc4OCc4ccccc4)c3c2)c1 [Compound P-1381]
≤ 10 µM: B-Raf V600E | FGFR1 | Fms | Pyk2

CCCC(=O)Nc1ccc(F)c(C(O)c2c[nH]c3ncc(OC)cc23)c1F (stereo not drawn) [Compound P-1367]
≤ 10 µM: FGFR1 | Kit | Pyk2

Clc1cccc(Nc2ccc3cc[nH]c3n2)c1 [Compound P-1373, (3-Chloro-phenyl)-(1H-pyrrolo[2,3-b]pyridin-6-yl)-amine]
≤ 10 µM: Flt1 | Pyk2
